Results published in ChEMBL document CHEMBL1154761 (J Med Chem, 2010).
Values belong to the molecule of their own block, whether it stands above or below them.

Experiments:
Beta-secretase 1 [1] = biological target: T1, Beta-secretase 1 (Homo sapiens, UniProt P56817)
Description: Inhibition of BACE1 mediated human Swedish amyloid precursor protein peptide hydrolysis by HTRF assay

Cathepsin D [2] = biological target: T2, Cathepsin D (Homo sapiens, UniProt P07339); assay: Inhibition of human cathepsin D at 50 uM preincubated for 30 mins
in vivo = conditions: rat, plasma, po, 10 mg/kg
[3] = Ratio of drug level in brain to plasma of rat at 10 mg/kg, po; format: ADME, organism-based; set-up: dose 10 mg/kg, route oral
[4] = Dissociation constant, pKa of the compound; format: physicochemical
Beta-secretase 1 [5] = biological target: T1, Beta-secretase 1; assay: Inhibition of BACE1 mediated hydrolysis of human amyloid precursor protein with Swedish and London mutation in HEK293 cells by ELISA; format: cell-based
Cathepsin D [6] = biological target: T2, Cathepsin D; assay: Inhibition of human cathepsin D preincubated for 30 mins
Beta-secretase 1 [7] = biological target: T1, Beta-secretase 1; assay: Inhibition of BACE1 mediated human Swedish amyloid precursor protein peptide hydrolysis at 500 uM by HTRF assay
Beta-secretase 1 [8] = biological target: T1, Beta-secretase 1; assay: Inhibition of BACE1 by fragment-based NMR screening method

T1 sequence (P56817 whole entry): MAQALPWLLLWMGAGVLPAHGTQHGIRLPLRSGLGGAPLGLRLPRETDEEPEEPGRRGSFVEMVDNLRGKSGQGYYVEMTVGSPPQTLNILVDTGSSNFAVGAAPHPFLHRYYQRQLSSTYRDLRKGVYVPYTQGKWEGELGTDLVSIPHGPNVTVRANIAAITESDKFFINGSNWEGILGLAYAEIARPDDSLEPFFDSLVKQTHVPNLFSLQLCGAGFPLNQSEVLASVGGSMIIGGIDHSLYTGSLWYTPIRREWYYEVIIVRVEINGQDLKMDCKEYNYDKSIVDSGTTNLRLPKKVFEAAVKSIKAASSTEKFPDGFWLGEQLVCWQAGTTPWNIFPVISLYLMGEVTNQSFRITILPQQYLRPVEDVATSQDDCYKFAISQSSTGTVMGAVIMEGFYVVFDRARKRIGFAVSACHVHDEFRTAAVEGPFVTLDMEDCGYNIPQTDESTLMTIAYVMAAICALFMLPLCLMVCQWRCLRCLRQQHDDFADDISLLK
T2 sequence (P07339 65-162 limits assumed): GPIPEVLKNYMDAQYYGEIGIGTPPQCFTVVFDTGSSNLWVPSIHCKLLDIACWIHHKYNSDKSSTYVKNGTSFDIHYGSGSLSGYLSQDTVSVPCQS
T2 sequence (P07339 169-412 limits assumed): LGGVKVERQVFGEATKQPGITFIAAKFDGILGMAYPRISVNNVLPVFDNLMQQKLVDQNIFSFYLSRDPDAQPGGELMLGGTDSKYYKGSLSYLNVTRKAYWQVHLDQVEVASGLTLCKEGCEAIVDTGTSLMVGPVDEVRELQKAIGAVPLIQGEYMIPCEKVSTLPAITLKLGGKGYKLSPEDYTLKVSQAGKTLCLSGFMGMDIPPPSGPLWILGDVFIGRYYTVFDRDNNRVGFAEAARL

Compound: CN1C(=O)C(c2ccccc2)(c2ccccc2)N=C1N
inhibition (Cathepsin D [2]): 38% | AUC (in vivo): 5 µM·h | Kp [3]: 1.8

Compound: CC1(C)C(=O)NC(=N)N1CCc1cccc(Cl)c1
pKa [4]: 4.4

Compound: CC(C)CC1(C)NC(=N)N(Cc2ccc(CNC(=O)Nc3ccc(C#N)cc3)cc2)C1=O (racemic)
IC50 (Beta-secretase 1 [1]): 7 µM

Compound: CCCCNC(=O)NCc1ccc(CN2C(=N)NC(CCC3CCCCC3)(CC3CCCCC3)C2=O)cc1 (stereo not drawn)
IC50 (Beta-secretase 1 [1]): 0.35 µM

Compound: CN1C(=N)N[C@](CCC2CCCCC2)(CC2CCCCC2)C1=O
IC50 (Beta-secretase 1 [5]): 2.6 µM | Ki (Cathepsin D [6]): 0.74 µM | IC50 (Beta-secretase 1 [1]): 0.605 µM | AUC (in vivo): 1 µM·h | Kp [3]: 0.9

Compound: CC(C)CC1(C)NC(=N)N(Cc2cccc(Cl)c2)C1=O (stereo not drawn)
inhibition (Beta-secretase 1 [7]): 55% | pKa [4]: 7.2 | Kd (Beta-secretase 1 [8]): 123 µM

Compound: CCCCNC(=O)NCc1ccc(CN2C(=N)NC(C)(CC(C)C)C2=O)cc1 (stereo not drawn)
IC50 (Beta-secretase 1 [1]): 78 µM

Compound: CC1(C)NC(=N)N(Cc2cccc(Cl)c2)C1=O
inhibition (Beta-secretase 1 [7]): 19% | Kd (Beta-secretase 1 [8]): 200 µM

Compound: CC(C)CC1(C)C(=O)NC(=N)N1Cc1cccc(Cl)c1 (stereo not drawn)
inhibition (Beta-secretase 1 [7]): 6%

Second part, the molecule after the results:

IC50 (Beta-secretase 1 [1]): 50 µM
Compound: CCCCNC(=O)NCc1ccc(CN2C(=N)NC(CCc3ccccc3)(CC(C)C)C2=O)cc1 (racemic)

IC50 (Beta-secretase 1 [1]): 3 µM
Compound: CCCCNC(=O)NCc1ccc(CN2C(=N)NC(CCC3CCCCC3)(CC(C)C)C2=O)cc1 (racemic)

IC50 (Beta-secretase 1 [1]): 2.1 µM
Compound: CCCCNC(=O)NCc1ccc(CN2C(=N)NC(CC3CCCCC3)(CC3CCCCC3)C2=O)cc1

IC50 (Beta-secretase 1 [1]): 5 µM
Compound: CCCCNC(=O)NCc1ccc(CN2C(=N)NC(C)(CC3CCCCC3)C2=O)cc1 (racemic)

inhibition (Beta-secretase 1 [7]): 64%
Compound: CCCCNC(=O)NCc1ccc(CN2C(=N)NC(C)(Cc3ccccc3)C2=O)cc1 (racemic)
